Assay results reported in patent US6160166A, “Phosphonated agents and their antiangiogenic and antitumorigenic use” (priority 1999, dated 2000).
“Also recorded” adds a separate entry of the source.

Assays:
[1] = tested on: chick chorioallantoic membrane (CAM); experiment: Chick egg chorioallantoic membrane (CAM) assay, 11-day, established vessels; assay type: in vivo
Description: According to Ausprunk et al. (1974), capillary angiogenesis in the CAM is completed by day 11. Measurements of intercapillary distances are also consistent with the cessation of capillary growth after day 10. […] The implants were prepared as previously described by Gagliardi et al. (1992), implanted on day 11 and read on day 13.
Comparison of the inhibition of angiogenesis by 70 nmol of
suramin or a equimolar amount of a phosphonic acid agents in the
6-day and 11-day chick egg chorioallantoic (CAM) assay.

[2] = tested on: human dermal Microvascular endothelial cells; experiment: Inhibition of bFGF-stimulated growth of human microvascular endothelial cells; assay type: cell-based; conditions: Homo sapiens, Endothelial cell; bFGF-stimulated; estimated from dose response curve
Description: Inhibition of cell growth was evaluated by measuring total protein and total DNA and the IC50 was estimated for each dose response curve.

[3] = tested on: bFGF binding sites of human microvascular endothelial cells; experiment: I125 bFGF binding to human microvascular endothelial cells; conditions: for percentage of inhibition of I125 bFGF binding: low and high affinity binding sites
Text: However, for the same concentrations of the phosphonic acid agents, the inhibition of growth factor binding was always less than 5% in relation to the control.
However, for the same concentrations of phosphonic acid agents, the inhibition of growth factor binding was always less than 5% in relation to the control.

Toxicity in vivo in mice = experiment: Toxicity in vivo in mice; set-up: species or system mouse
Description: Mice were injected intraperitoneally with 0-150 μM/kg body weight of the compounds to be tested, every other day for a total of five injections. The animals were carefully observed daily and weighed every third day for 28 days after the last injection. After the 28-day observation period, the animals were euthanized, blood was collected through cardiac puncture and the following tissues were subjected to histological investigation: heart, lungs, liver, spleen, adrenal gland, kidney, sciatic nerve, soleus muscle and brain.
It is clear from studies so far that compounds with equipotent or greater antitumor activity but with substantially lower toxicity are of considerable potential therapeutic value as an antitumorigenic or antiangiogenic agent. […] The animals were carefully observed daily and weighed every third day for 28 days after the last injection. After the 28-day observation period, the animals were euthanized, blood was collected through cardiac puncture and the following tissues were kept for histological investigation: heart, lungs, liver, spleen, adrenal gland, kidney, sciatic nerve, soleus muscle and brain.

HMEC-1 = HMEC-1 cell growth, total protein and total DNA; assay type: cell-based, human
Description: Logarithmically growing HMEC-1 or HMVEC-d cells are seeded at 2×10^4 cells/well in six well plates (Falcon) containing 2 ml of MCDB-131 medium supplemented with 5% fetal bovine serum (FBS) (Hyclone). […] After removal of medium, the cell layer is washed twice with 1 ml of cold Hanks balanced salt solution and the cells are dislodged by trypsinization. The cells are collected in microcentrifuge tubes and washed twice with 1 ml of cold phosphate-buffered saline, and then 1 ml of cold 10% trichloroacetic acid are added. Acid precipitable radioactivity are collected on a glass fiber filter (Whatman Grade GF/C) and the radioactivity is determined in a liquid scintillation spectrometer (Packard).

[4] = tested on: human microvascular endothelial cells (HMEC-1, HMVEC-d); experiment: 3H-Leucine incorporation, inhibition of protein synthesis; assay type: cell-based; conditions: time course
Description: For each time period, six replicate flasks are set up. The volume of the medium MCDB-131 is 10 ml per flask. After incubation, the medium was replaced with fresh MCDB-131 containing […] of ^3 H-leucine and incubated for a further 90 min. TritonX-100 (240 μl, 10%) were then added to the contents of each flask and agitated. Trichloroacetic acid (TCA) (4 ml, 20%) is added, the contents mixed and the flasks left overnight at room temperature. After 24 hr, the flask contents was suspended by shaking, transferred to tubes and centrifuged at 4300 g. The pellets were resuspended in 10% TCA and recentrifuged and then resuspended in 3.0 ml of 0.1 M NaOH. Half of this volume was transferred to scintillation vials in 10 ml of Emulsifier Safe scintillation fluid (Packard) while the remaining 1.5 ml was used to assay DNA content (LaBarca and Paigen, 1980). The radioactive counts due to protein synthesized in the presence of ^3 H-leucine was normalized to counts/μg DNA. Protein synthesis by cells treated with the phosphonic acid agents are expressed relative to that of control cells as the percent of inhibition for each time of incubation.
After this period of time, the rate steadily declines.

[5] = tested on: microvascular endothelial cell migration; experiment: Endothelial cell migration in vitro; assay type: cell-based
[6] = tested on: human dermal microvascular and porcine pulmonary artery endothelial cells; experiment: bFGF-stimulated and non-stimulated endothelial cell growth (total protein, total DNA); assay type: cell-based; conditions: suramin 210 μM
Text: Suramin is a highly charged molecule with six sulfonate groups that are ionized at physiologic pH.

[7] = tested on: human microvascular endothelial cells; experiment: Sensitivity of microvascular versus large vessel endothelium to inhibition; assay type: cell-based
PKC type I-III = conditions: Mahoney et al., 1990; read-out: ID50, PKC type I-III activity; cited from earlier work
[8] = target: cyclic AMP-dependent protein kinase; conditions: Mahoney et al., 1990; cited from earlier work
p34cdc2 kinase = conditions: literature; extracts from human small cell lung cancer cells; cited from earlier work
[9] = tested on: human cerebral meningioma cells; conditions: Schrell et al., 1995; cited from earlier work
[10] = tested on: MCF-7 human breast cancer cells; conditions: 48 hr (Foekens et al., 1993); cited from earlier work
[11] = tested on: binding of growth factors to their receptors; conditions: intact cells; cited from earlier work
[12] = tested on: tyrosine specific phosphorylation of cellular proteins; conditions: Ghosh and Miller, 1993; cited from earlier work

Description for HMEC-1 cells: Triplicates were carried out for each period of incubation. At the end of each incubation period, the cells were processed through different washings and finally to differential centrifugation. Different cell fractions were transferred to separate scintillation vials, solubilized in a liquid scintillation cocktail and counted in a 2000 CA TRICARB Liquid Scintillation Counter.

For `Cc1ccc(C(=O)Nc2ccc(S(=O)(=O)O)c3cc(S(=O)(=O)O)cc(S(=O)(=O)O)c23)cc1NC(=O)c1cccc(NC(=O)Nc2cccc(C(=O)Nc3cc(C(=O)Nc4ccc(S(=O)(=O)O)c5cc(S(=O)(=O)O)cc(S(=O)(=O)O)c45)ccc3C)c2)c1` [suramin], the “11-day CAM % Inhibition” value ([1]; 70 nmol or equimolar amount) was 50%, the “inhibitory activity in the 11-day CAM, in words” value ([1]; established vessels) was “showed antiangiogenic activity; also recorded: clearly affected both the growing and established vascular cells” and the IC50 [2] was 437 µM. The “percentage of inhibition of I125 bFGF binding” value ([3]; 25 μM) was 9%, the “percentage of inhibition of I125 bFGF binding” value ([3]; 70 μM) was 96% and the “effect on bFGF binding, in words” value ([3]; same molar concentrations as suramin) was “inhibited I^125 bFGF binding in a dose-related manner”. The “reduction in body weight” value (Toxicity in vivo in mice; 150, 75 and 35 μM/kg body weight, injection period) was 10-15%, the histological findings (Toxicity in vivo in mice; after 28-day observation, suramin or equimolar doses) was “dose-related frequency of lipoid degeneration of the zona reticularis of the adrenal gland and vacuolar changes in the proximal convoluted tubules of the renal tubular epithelium” and the mortality (Toxicity in vivo in mice; i.p., every other day, five injections, suramin 150 μM/kg, agents up to 150 μM/kg) was “died before completion of the five injections”. For the same compound, the “body weight, in words” value (Toxicity in vivo in mice; i.p., five injections, 28 days observation) was “body weight stabilized but did not return to normal”, the “effect on cell growth” value (HMEC-1; 50-100 μg/ml) was “stimulatory effect on cell growth” and the “effect on total protein and total DNA” value (HMEC-1; suramin higher than 250 μg/ml, agents lower concentrations) was “significant dose-related reduction in total protein and total DNA”. The “effect on HMEC-1 cell growth” value (HMEC-1; up to 100 μg/ml) was “did not have any significant inhibitory effect”, the “effect on protein synthesis” value [4] was “no change in the rate of protein synthesis until suramin and the cells have been incubated together for at least 24 hr” and the minimal effective concentration ([5]; Endothelial cell, read-out: concentration inhibiting endothelial cell migration) was > 150 µg/mL. For the same compound, the “inhibition of migration, in words” value ([5]; number of cells migrated and distance traveled) was “significantly inhibited endothelial cell migration”, the “effect on bFGF stimulation of endothelial cell growth” value [6] was “inhibited the stimulatory effect of bFGF; also recorded: inhibited the growth factor stimulatory effect” and the “sensitivity of microvascular versus large vessel endothelium” value [7] was “much more sensitive to inhibition”. For the same compound, the “time to plateau of cell incorporation” value (HMEC-1 cells) was “around 24 hr”, the IC50 (PKC type I-III) was 50 µM and the IC50 [8] was 656 µM. The “effect on purified cdc2 kinase / tyrosine phosphorylation” value (p34cdc2 kinase) was “direct inhibitory effect on purified cdc2 kinase and also modulates the tyrosine phosphorylation of cdc2 kinase”, the “effect on proliferation and cell cycle” value [9] was “inhibited proliferation of human cerebral meningioma cells and increased the percentage of cells in the S and G2/M phase of the cell cycle; also recorded: inhibited meningioma cell proliferation in five different tumor lines by arresting cells in G2-M and S phases of the cell cycle” and the “effect on cell cycle” value [10] was “accumulation of MCF-7 human breast cancer cells in the G2-M phase of the cell cycle”. The “effect on binding of growth factors to their receptors” value [11] was “able to disrupt the binding of growth factors to their receptors in intact cells” and the “effect on tyrosine specific phosphorylation” value [12] was “increase the global tyrosine specific phosphorylation of cellular proteins in vivo”.
